# Test results: patent US7504400B2, “MTP inhibiting aryl piperydines or piperazines substituted with 5-membered heterocycles” (Janssen Pharmaceutica N.V., priority 2004, dated 2009)
# System: Secretion of ApoB
# Assay: Quantification of the secretion of ApoB in HepG2 cells
# Type: cell-based
# Details: Homo sapiens, HepG2, 24 h, 24 hours of incubation with test compound, immunoprecipitation of apoB from medium, read-out: pIC50 value (=-log IC50 value), secretion of ApoB (converted)
# Protocol: HepG2 cells were cultured in 24-well plates in MEM Rega 3 containing 10% fetal calf serum. At 70% confluency, the medium was changed and the test compound or carrier (DMSO, 0.4% final concentration) was added. After 24 hours of incubation, the medium was transferred to Eppendorf tubes and cleared by centrifugation. A sheep antibody directed against either apoB was added to the supernatant and the mixture was kept at 8° C. for 24 hours. Then, rabbit anti-sheep antibody was added and the immune complex was allowed to precipitate for 24 hours at 8° C. The immunoprecipitate was pelleted by centrifugation for 25 minutes at 1320 g and washed twice with a buffer containing 40 mM Mops, 40 mM NaH2PO4, 100 mM NaF, 0.2 mM DTT, 5 mM EDTA, 5 mM EGTA, 1% Triton-X-100, 0.5% sodium deoxycholate (DOC), 0.1% SDS, 0.2 μM leupeptin and 0.2 μM PMSF. Radioactivity in the pellet was quantified by liquid scintillation-counting. The IC50 values are usually converted to pIC50 values (=−log IC50 value) for ease of use.
row,SMILES,IC50
1,Cc1nn(-c2ccc(N3CCN(C(C(=O)NCc4ccccc4)c4ccccc4)CC3)cc2)c(=O)n1C(C)C (stereo not shown) [Compound 40],316 to 3160 nM
2,CCCOC(=O)C(CN1CCN(c2ccc(-n3cnn(C(C)C)c3=O)cc2)CC1)c1ccccc1 (stereo not shown) [Compound 41],316 to 3160 nM
3,CCCCNC(=O)C(c1ccccc1)N1CCN(c2ccc(-n3cnn(C(C)C)c3=O)cn2)CC1 (stereo not shown) [Compound 42],316 to 3160 nM
4,CC(C)CNC(=O)C(c1ccccc1)N1CCN(c2ccc(-n3cnn(C(C)C)c3=O)cn2)CC1 (stereo not shown) [Compound 43],316 to 3160 nM
5,CCCCCNC(=O)C(c1ccccc1)N1CCN(c2ccc(-n3cnn(C(C)C)c3=O)cn2)CC1 (stereo not shown) [Compound 44],31.6 to 316 nM
6,CC(C)n1ncn(-c2ccc(N3CCN(C(C(=O)NCc4ccccn4)c4ccccc4)CC3)nc2)c1=O (stereo not shown) [Compound 45],316 to 3160 nM
7,CCNC(=O)C(c1ccccc1)N1CCN(c2ccc(-n3cnn(C(C)C)c3=O)cn2)CC1 (stereo not shown) [Compound 46],316 to 3160 nM
8,CCCNC(=O)C(c1ccccc1)N1CCN(c2ccc(-n3cnn(C(C)C)c3=O)cn2)CC1 (stereo not shown) [Compound 47],316 to 3160 nM
9,CC(C)n1ncn(-c2ccc(N3CCN(C(C(=O)NCc4ccccc4)c4ccccc4)CC3)nc2)c1=O (stereo not shown) [Compound 48],31.6 to 316 nM
10,C=CCNC(=O)C(c1ccccc1)N1CCN(c2ccc(-n3cnn(C(C)C)c3=O)cn2)CC1 (stereo not shown) [Compound 49],316 to 3160 nM
11,CC(C)n1ncn(-c2ccc(N3CCN(C(C(=O)NCCC#N)c4ccccc4)CC3)nc2)c1=O (stereo not shown) [Compound 50],316 to 3160 nM
12,CCCCCn1ncn(-c2ccc(N3CCC(C(C(=O)Nc4ccccc4)c4ccccc4)CC3)cc2)c1=O (stereo not shown) [Compound 51],31.6 to 316 nM
13,C=CCn1ncn(-c2ccc(N3CCC(C(C(=O)Nc4ccccc4)c4ccccc4)CC3)cc2)c1=O (stereo not shown) [Compound 52],316 to 3160 nM
14,CCn1ncn(-c2ccc(N3CCC(C(C(=O)Nc4ccccc4)c4ccccc4)CC3)cc2)c1=O (stereo not shown) [Compound 53],316 to 3160 nM
15,Cc1ccc(C)c(NC(=O)C(c2ccccc2)N2CCN(c3ccc(-n4cnn(C(C)C)c4=O)cc3)CC2)c1 (stereo not shown) [Compound 54],31.6 to 316 nM
16,CC(C)n1ncn(-c2ccc(N3CCN(C(C(=O)Nc4ccc(Cl)cc4)c4ccccc4)CC3)cc2)c1=O (stereo not shown) [Compound 55],31.6 to 316 nM
17,CC(C)n1ncn(-c2ccc(N3CCN(C(C(=O)Nc4ccccc4O)c4ccccc4)CC3)cc2)c1=O (stereo not shown) [Compound 56],316 to 3160 nM
18,Cc1cccc(NC(=O)C(c2ccccc2)N2CCN(c3ccc(-n4cnn(C(C)C)c4=O)cc3)CC2)c1 (stereo not shown) [Compound 57],31.6 to 316 nM
19,CC(C)n1ncn(-c2ccc(N3CCN(C(C(=O)Nc4cccc(C(F)(F)F)c4)c4ccccc4)CC3)cc2)c1=O (stereo not shown) [Compound 58],31.6 to 316 nM
20,Cc1ccc(NC(=O)C(c2ccccc2)N2CCN(c3ccc(-n4cnn(C(C)C)c4=O)cc3)CC2)c(C)c1 (stereo not shown) [Compound 59],31.6 to 316 nM
21,Cc1cc(C)cc(NC(=O)C(c2ccccc2)N2CCN(c3ccc(-n4cnn(C(C)C)c4=O)cc3)CC2)c1 (stereo not shown) [Compound 60],31.6 to 316 nM

row,SMILES,IC50
1,COc1cccc(NC(=O)C(c2ccccc2)N2CCN(c3ccc(-n4cnn(C(C)C)c4=O)cc3)CC2)c1 (stereo not shown) [Compound 61],31.6 to 316 nM
2,CC(C)n1ncn(-c2ccc(N3CCN(C(C(=O)Nc4ccc(F)cc4F)c4ccccc4)CC3)cc2)c1=O (stereo not shown) [Compound 62],31.6 to 316 nM
3,CC(C)n1ncn(-c2ccc(N3CCN(C(C(=O)Nc4ccc5c(c4)OCCO5)c4ccccc4)CC3)cc2)c1=O (stereo not shown) [Compound 63],31.6 to 316 nM
4,COc1cc(NC(=O)C(c2ccccc2)N2CCN(c3ccc(-n4cnn(C(C)C)c4=O)cc3)CC2)cc(C(F)(F)F)c1 (stereo not shown) [Compound 64],31.6 to 316 nM
5,CC(C)n1ncn(-c2ccc(N3CCN(C(C(=O)NCc4ccco4)c4ccccc4)CC3)cc2)c1=O (stereo not shown) [Compound 65],316 to 3160 nM
6,CCOC(=O)CNC(=O)C(c1ccccc1)N1CCN(c2ccc(-n3cnn(C(C)C)c3=O)cc2)CC1 (stereo not shown) [Compound 66],31.6 to 316 nM
7,CC(C)n1ncn(-c2ccc(N3CCN(C(C(=O)NCCNc4cccc5ccccc45)c4ccccc4)CC3)cc2)c1=O (stereo not shown) [Compound 67],316 to 3160 nM
8,CC(C)n1ncn(-c2ccc(N3CCN(C(C(=O)NCC(C)(c4ccccc4)c4ccccc4)c4ccccc4)CC3)cc2)c1=O (stereo not shown) [Compound 68],316 to 3160 nM
9,CC(C)n1ncn(-c2ccc(N3CCN(C(C(=O)NC4Cc5ccccc5C4)c4ccccc4)CC3)cc2)c1=O (stereo not shown) [Compound 69],31.6 to 316 nM
10,CC(C)n1ncn(-c2ccc(N3CCN(C(C(=O)NCc4ccccn4)c4ccccc4)CC3)cc2)c1=O (stereo not shown) [Compound 70],316 to 3160 nM
11,COc1ccc(CNC(=O)C(c2ccccc2)N2CCN(c3ccc(-n4cnn(C(C)C)c4=O)cc3)CC2)cc1 (stereo not shown) [Compound 71],316 to 3160 nM
12,CC(C)n1ncn(-c2ccc(N3CCN(C(C(=O)NCCc4ccccn4)c4ccccc4)CC3)cc2)c1=O (stereo not shown) [Compound 72],316 to 3160 nM
13,CC(C)n1ncn(-c2ccc(N3CCN(C(C(=O)NCc4ccc(S(C)(=O)=O)cc4)c4ccccc4)CC3)cc2)c1=O (stereo not shown) [Compound 73],316 to 3160 nM
14,CC(C)NC(=O)C(CN1CCN(c2ccc(-n3cnn(C(C)C)c3=O)cc2)CC1)c1ccccc1 (stereo not shown) [Compound 74],31.6 to 316 nM
15,CC(C)n1ncn(-c2ccc(N3CCN(C(C(=O)NCc4cccs4)c4ccccc4)CC3)cc2)c1=O (stereo not shown) [Compound 75],316 to 3160 nM
16,CC(C)n1ncn(-c2ccc(N3CCN(C(C(=O)NCc4cccc(C(F)(F)F)c4)c4ccccc4)CC3)cc2)c1=O (stereo not shown) [Compound 77],31.6 to 316 nM
17,COc1cc(CNC(=O)C(c2ccccc2)N2CCN(c3ccc(-n4cnn(C(C)C)c4=O)cc3)CC2)cc(OC)c1OC (stereo not shown) [Compound 78],316 to 3160 nM
18,CC(C)n1ncn(-c2ccc(N3CCN(C(C(=O)NCc4c(F)cccc4F)c4ccccc4)CC3)cc2)c1=O (stereo not shown) [Compound 79],316 to 3160 nM
19,CC(C)n1ncn(-c2ccc(N3CCN(C(C(=O)NCCNc4ccccc4)c4ccccc4)CC3)cc2)c1=O (stereo not shown) [Compound 80],31.6 to 316 nM
20,CC(C)n1ncn(-c2ccc(N3CCN(C(C(=O)NC4CC4)c4ccccc4)CC3)cc2)c1=O (stereo not shown) [Compound 81],316 to 3160 nM
21,COc1ccc(CCNC(=O)C(c2ccccc2)N2CCN(c3ccc(-n4cnn(C(C)C)c4=O)cc3)CC2)cc1OC (stereo not shown) [Compound 82],31.6 to 316 nM

row,SMILES,IC50
1,CC(C)n1ncn(-c2ccc(N3CCN(C(C(=O)NCc4cccc5ccccc45)c4ccccc4)CC3)cc2)c1=O (stereo not shown) [Compound 83],31.6 to 316 nM
2,CC(C)n1ncn(-c2ccc(N3CCN(C(C(=O)NCCCN(C)c4ccccc4)c4ccccc4)CC3)cc2)c1=O (stereo not shown) [Compound 84],316 to 3160 nM
3,CC(C)n1ncn(-c2ccc(N3CCN(C(C(=O)NCCCc4ccccc4)c4ccccc4)CC3)cc2)c1=O (stereo not shown) [Compound 85],31.6 to 316 nM
4,Cc1nn(C(C)C)c(=O)n1-c1ccc(N2CCN(C(C(=O)NCc3ccccc3)c3ccccc3)CC2)cc1 (stereo not shown) [Compound 86],316 to 3160 nM
5,CCCn1ncn(-c2ccc(N3CCC(C(C(=O)NC(C)C)c4ccccc4)CC3)cc2)c1=O (stereo not shown) [Compound 87],316 to 3160 nM
6,CCCCn1ncn(-c2ccc(N3CCC(C(C(=O)NC(C)C)c4ccccc4)CC3)cc2)c1=O (stereo not shown) [Compound 88],31.6 to 316 nM
7,CCCCCn1ncn(-c2ccc(N3CCC(C(C(=O)NC(C)C)c4ccccc4)CC3)cc2)c1=O (stereo not shown) [Compound 89],316 to 3160 nM
8,CC(C)Cn1ncn(-c2ccc(N3CCC(C(C(=O)NC(C)C)c4ccccc4)CC3)cc2)c1=O (stereo not shown) [Compound 90],316 to 3160 nM
9,CC(C)NC(=O)C(c1ccccc1)C1CCN(c2ccc(-n3cnn(CC4CC4)c3=O)cc2)CC1 (stereo not shown) [Compound 91],316 to 3160 nM
10,CC(C)NC(=O)C(c1ccccc1)C1CCN(c2ccc(-n3cnn(C/C=C/c4ccccc4)c3=O)cc2)CC1 (stereo not shown) [Compound 92],316 to 3160 nM
11,CCC(C)n1ncn(-c2ccc(N3CCN(C(C(=O)NCCO)c4ccccc4)CC3)cc2)c1=O (stereo not shown) [Compound 94],316 to 3160 nM
12,C=CCNC(=O)C(c1ccccc1)N1CCN(c2ccc(-n3cnn(C(C)CC)c3=O)cc2)CC1 (stereo not shown) [Compound 95],31.6 to 316 nM
13,CCCCCNC(=O)C(c1ccccc1)N1CCN(c2ccc(-n3cnn(C(C)CC)c3=O)cc2)CC1 (stereo not shown) [Compound 96],31.6 to 316 nM
14,COc1ccc(CNC(=O)C(c2ccccc2)N2CCN(c3ccc(-n4cnn(C(C)C)c4=O)cc3)CC2)c(OC)c1 (stereo not shown) [Compound 97],31.6 to 316 nM
15,CC(C)n1ncn(-c2ccc(N3CCN(CC(C(=O)NCC(F)(F)F)c4ccccc4)CC3)cc2)c1=O (stereo not shown) [Compound 98],31.6 to 316 nM
16,CCCNC(=O)C(c1ccccc1)C1CCN(c2ccc(-n3cnn(C(C)C)c3=O)cc2)CC1 (stereo not shown) [Compound 99],31.6 to 316 nM
17,CNC(=O)C(CN1CCN(c2ccc(-n3cnn(C(C)C)c3=O)cc2)CC1)c1ccccc1 (stereo not shown) [Compound 100],31.6 to 316 nM
18,CCNC(=O)C(CN1CCN(c2ccc(-n3cnn(C(C)C)c3=O)cc2)CC1)c1ccccc1 (stereo not shown) [Compound 101],31.6 to 316 nM
19,CC(C)n1ncn(-c2ccc(N3CCN(CC(C(=O)NCCC#N)c4ccccc4)CC3)cc2)c1=O (stereo not shown) [Compound 102],316 to 3160 nM
